Data from patent publication US20210276960A1, “INHIBITORS OF TISSUE TRANSGLUTAMINASE 2 (TG2) AND USES THEREOF” (Northwestern University, priority 2020, published 2021).

How the values were obtained:
[1] = target: T1, purified TG2 (UniProt P08587); settings: not shown, see ref 11; cited from earlier work
T1 construct: purchased Sigma T5398

[2] = test system: SKOV3 cells adhesion to collagen-1; assay: SKOV3 adhesion to collagen-1 coated wells; format: cell-based; settings: 25 μM, collagen-1 20 μg/ml
Experimental: FIG. 13. Top SMIs inhibit cell adhesion to FN. A, Effects of top compounds (25 μM) on SKOV3 cells adhesion to FN. B, Dose-dependent effects (1-25 μM) of TG53 on SKOV3 cell adhesion to FN. […] D, Effects of TG53 (25 μM) on SKOV3 cells adhesion to wells coated with collagen-1 (20 μg/ml). E, Effects of TG53 (25 μM) on SKOV3-control or AS-TG2 cells adhesion to FN. Bars represent means+/−SEM of quadruplicate measurements. * denote p<0.05.
Cells labeled with calcein AM (Life Technologies, #L3224) were seeded at a density of 4×10^4 cells in 96-well plates pre-coated with FN (5 μg/mL, Sigma, #F1141), and blocked using 1% BSA (Sigma, #A9647) in PBS in the presence of selected compounds diluted at the specified concentrations, in serum free media. After 45 minutes, unattached cells were washed using PBS containing 1 mM MgCl2(Sigma, #M8266) and adherent cells were quantified in a SpectraMaxGeminiXS fluorescence plate reader (Molecular Devices, Palo Alto, Calif.) at 530 nm wavelength. Experiments were performed inquadruplicate and repeated at least twice.

[3] = test system: OC cells; settings: 10 μM; not shown, see ref 11; cited from earlier work
[4] = Solubility assay; format: physicochemical; settings: pH=7.4 PBS buffer, 2% DMSO
Experimental: Solubility was measured in a 384-well plate using a Synergy HTX plate reader. Starting with a 50 mM DMSO stock solution of test compounds, dilutions were made from 1 to 500 μM final concentrations using acetonitrile, keeping the final DMSO concentration at 2%. UV absorption was measured at 254 nm and absorbance versus concentration was plotted to give a standard curve. A DMSO stock of test compound was also diluted with pH=7.4 PBS buffer to give a final concentration of 250 μM containing 2% DMSO. This mixture was stirred on a plate shaker for 1 hr after which it was centrifuged at 2500 rpm for 3 min. 50 μL of the supernatant was removed, transferred to a 384-well plate, and the UV absorbance at 254 nm was measured. Absorbance of the test compound in PBS buffer was analyzed with the standard curve to determine solubility.

[5] = test system: OVCAR5 cells; assay: Colony forming assay after priming, with paclitaxel; format: cell-based, human; settings: priming with 1 μM for 72 hours before 5 nM PTX
Experimental: After 72 h priming with either 1 μM MT-4, TG53 or vehicle (DMSO), 150 OVCAR5 cells were seeded in 60 mm dishes and treated or not with paclitaxel (PTX, Sigma). Colonies were allowed to form over 10 days, fixed in 4% PFA and stained with 0.4% crystal violet (MP Biomedicals). Colonies were counted, and analysis was performed using the ImageJ software ([…]).Spheroid cultures were carried out as previously described(Condello et al., 2015). Briefly, OC cells were resuspended in Mammocult complete medium (StemCell Technologies) supplemented with Mammocult Proliferation Supplements, heparin and hydrocortisone (StemCell Technologies) and seeded at a concentration of 10,000 cells/well in 96-well ultra-low attachment plates (Corning, Corning, N.Y., USA). After treatment with DMSO (control) or TG53 (1 μM) for 7 days, spheroids were counted and quantified by the CCK-8 assay. All assays were performed in four replicates and were repeated. For priming before PTX treatment, cells were manipulated as described for CFU assay and then seeded in 6-well low-attachment plate (Corning, #3473) at 7000 cells/mL/well and allowed to form spheroids in complete Mammocult media. Spheres were counted after ten days from 4 replicate wells. Two independent experiments were performed.

[6] = test system: SKOV3 cells adhesion onto LP9 monolayers; assay: Cell adhesion to LP9 mesothelial monolayers, SKOV3; format: cell-based; settings: 25 μM
Experimental: LP9 mesothelial cells added to clear-bottom 96-well plate at 12,000 cells/well were grown to confluency over 48 hours (h). OC cells were labeled with calcein AM and seeded at a density of 4×10^4 cells to monolayers of mesothelial cells and incubated for 1 h. Non-adherent cells were removed by washing with PBS.

[7] = test system: FN45-TG2 interaction; assay: Bio-layer interferometry (BLI) of FN45-TG2 binding
Experimental: The 45 kDa fibronectin fragment (FN45) corresponding to the TG2 binding region (Sigma, # F0162) was biotinylated using Biotin (Type A) Fast Conjugation Kit (Abcam, # ab201795). Biotinylated FN45 (10 μg/mL in PBS) was captured on pre-hydrated streptavidin-coated sensors (Pall Forte Bio SAX 18-5117). At each TG2 concentration, the binding kinetics were determined by following this sequence run: baseline (PBS for 30 s), association step (varying concentrations of TG2 in PBS for 120 s), and dissociation step (PBS for 120 s). A new FN45 biosensor was prepared for each run. To analyze the effect of the inhibitor MT4 on the interaction between TG2 and FN, a solution of 20 μg/mL of bio-FN45 was used for capturing FN45 on the streptavidin-coated sensors and the association step was 90 s. For each sensor, the capturing step was measured in real-time in order to assess the stability of the signal and the reproducibility between sensors. The saturation level Rmax was 0.6 (+0.08) for all sensors and no dissociation of the biotinylated FN45 was observed over 60 minutes. […] For the experiments with (TG2+MT4), controls were performed at each MT4 concentration and Rmax values were corrected for non-specific binding and any effects of DMSO on the TG2-FN45 interaction (these effects were below 8%). All BLI experiments were performed at 22° C. Data fitted globally using the BLItz Pro 1.10.31 software package as described(14, 15). Isothermal titration calorimetry (ITC) was performed at 25° C. by titrating 160 μM MT4 into a 10 μM solution of TG2 (Sigma, #T5398).

T1 sequence (P08587 whole entry): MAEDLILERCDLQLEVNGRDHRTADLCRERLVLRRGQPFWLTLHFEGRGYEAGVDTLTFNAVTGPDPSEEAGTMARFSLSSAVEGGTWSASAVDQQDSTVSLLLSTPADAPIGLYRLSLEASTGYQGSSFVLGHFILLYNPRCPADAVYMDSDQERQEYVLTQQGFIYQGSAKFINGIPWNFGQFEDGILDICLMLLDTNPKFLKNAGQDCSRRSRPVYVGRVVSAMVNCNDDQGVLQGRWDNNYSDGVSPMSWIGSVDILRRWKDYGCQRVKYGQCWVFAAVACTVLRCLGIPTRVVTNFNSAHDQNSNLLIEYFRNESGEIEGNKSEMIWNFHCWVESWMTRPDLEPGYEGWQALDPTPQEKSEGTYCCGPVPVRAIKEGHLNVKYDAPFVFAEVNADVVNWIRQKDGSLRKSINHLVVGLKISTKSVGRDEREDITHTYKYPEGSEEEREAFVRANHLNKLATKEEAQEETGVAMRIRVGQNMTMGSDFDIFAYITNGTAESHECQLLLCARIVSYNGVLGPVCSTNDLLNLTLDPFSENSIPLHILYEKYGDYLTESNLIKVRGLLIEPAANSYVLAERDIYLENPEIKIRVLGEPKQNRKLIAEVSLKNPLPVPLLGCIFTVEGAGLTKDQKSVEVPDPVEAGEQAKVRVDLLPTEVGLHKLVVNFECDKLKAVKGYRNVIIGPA

Row | Compound | TG2 enzymatic activity [1] | adhesion to collagen [2] | wound closure, cell migration rate, and invasion through matrigel coated trans-well plates [3] | solubility at 1 h [4] [µM] | colony formation [5] | SKOV3 cell binding to the mesothelial layer [6] | FN45 and rTG2 complex formation ([7]; FN45 on sensors incubated with MT4, 16 nM to 500 μM, 15, 30, 45 minutes) | dissociation of FN45-TG2 ([7]; TG2 pre-incubated with MT4) | association between FN45 and rTG2 ([7]; rTG2 incubated with MT4 prior to BLI) | solubility at 1 h ([4]; aqueous buffer, kinetic from dmso stock) [µM]
1 | COc1ccc(Cl)cc1C(=O)Nc1ccc(Nc2nc(C)cc(N(C)C)n2)cc1 [TG53] | did not inhibit | did not inhibit | decreased | <5 | – | – | – | – | – | –
2 | Cc1cc(N(C)C)nc(Nc2ccc(NC(=O)Cc3ccccc3)cc2)n1 [MT-4] | – | – | – | – | diminished | significantly decreased | not affected | faster dissociation | Dose-dependent inhibition | 91.5
